Patent US9439428B2, “Herbicidal compounds” (SYNGENTA LIMITED, priority 2011, dated 2016)

Test system: Setaria faberi (SETFA)
Test: Post-emergence herbicidal glasshouse test
Type: in vivo
Conditions: 1000 g/h, evaluated after 13 days, five point scale
Description: (§1) Seeds of a variety of test species are sown in standard soil in pots (Alopecurus myosuroides (ALOMY), Setaria faberi (SETFA), Echinochloa crus-galli (ECHCG), Abuthilon theophrasti (ABUTH) and Amaranthus retoflexus (AMARE)). After cultivation for one day (pre-emergence) or after 8 days cultivation (post-emergence) under controlled conditions in a glasshouse (at 24/16° C., day/night; 14 hours light; 65% humidity), the plants are sprayed with an aqueous spray solution derived from the formulation of the technical active ingredient in acetone/water (50:50) solution containing 0.5% Tween 20 (polyoxyethelyene sorbitan monolaurate, CAS RN 9005-64-5). Compounds ae applied at 1000 g/h. The test plants are then grown in a glasshouse under controlled conditions in a glasshouse (at 24/16° C., day/night; 14 hours light; 65% humidity) and watered twice daily. After 13 days for pre and post-emergence, the test is evaluated for the percentage herbicidal damage caused to the plant. The biological activities are shown in the following table on a five point scale (5=80-100% damage; 4=60-79% damage; 3=40-59% damage; 2=20-39% damage; 1=0-19% damage).

Structure (SMILES)	percentage herbicidal damage, SETFA, POST Application
Cc1cc(C(=O)C2C(=O)C3CCC(C3)C2=O)c(=O)n(-c2ccccc2)n1 (centres unmarked) [Compound 1.7]	5 (5=80-100% damage)
Cc1cc(C(=O)C2C(=O)CC(C)CC2=O)c(=O)n(-c2ccccc2)n1 (centres unmarked) [Compound 1.9]	5 (5=80-100% damage)
Cc1cc(C(=O)C2C(=O)C(C)(C)C(=O)C(C)(C)C2=O)c(=O)n(-c2ccccc2)n1 [Compound 1.8]	5 (5=80-100% damage)
COc1ccc(-n2nc(C)cc(C(=O)C3C(=O)CC(C)CC3=O)c2=O)cc1 (centres unmarked) [Compound 1.5]	5 (5=80-100% damage)
COc1ccc(-n2nc(C)cc(C(=O)C3C(=O)C4CCC(C4)C3=O)c2=O)cc1 (centres unmarked) [Compound 1.4]	5 (5=80-100% damage)

Test system: Abuthilon theophrasti (ABUTH)
Test: Post-emergence herbicidal glasshouse test
Type: in vivo
Conditions: 1000 g/h, evaluated after 13 days, five point scale
Description: as §1

Structure (SMILES)	percentage herbicidal damage, ABUTH, POST Application
Cc1cc(C(=O)C2C(=O)C3CCC(C3)C2=O)c(=O)n(-c2ccccc2)n1 (centres unmarked) [Compound 1.7]	5 (5=80-100% damage)
Cc1cc(C(=O)C2C(=O)CC(C)CC2=O)c(=O)n(-c2ccccc2)n1 (centres unmarked) [Compound 1.9]	5 (5=80-100% damage)
Cc1cc(C(=O)C2C(=O)C(C)(C)C(=O)C(C)(C)C2=O)c(=O)n(-c2ccccc2)n1 [Compound 1.8]	5 (5=80-100% damage)
COc1ccc(-n2nc(C)cc(C(=O)C3C(=O)CC(C)CC3=O)c2=O)cc1 (centres unmarked) [Compound 1.5]	5 (5=80-100% damage)
COc1ccc(-n2nc(C)cc(C(=O)C3C(=O)C4CCC(C4)C3=O)c2=O)cc1 (centres unmarked) [Compound 1.4]	5 (5=80-100% damage)

Test system: Echinochloa crus-galli (ECHCG)
Test: Post-emergence herbicidal glasshouse test
Type: in vivo
Conditions: 1000 g/h, evaluated after 13 days, five point scale
Description: as §1

Structure (SMILES)	percentage herbicidal damage, ECHCG, POST Application
Cc1cc(C(=O)C2C(=O)C3CCC(C3)C2=O)c(=O)n(-c2ccccc2)n1 (centres unmarked) [Compound 1.7]	5 (5=80-100% damage)
Cc1cc(C(=O)C2C(=O)CC(C)CC2=O)c(=O)n(-c2ccccc2)n1 (centres unmarked) [Compound 1.9]	5 (5=80-100% damage)
Cc1cc(C(=O)C2C(=O)C(C)(C)C(=O)C(C)(C)C2=O)c(=O)n(-c2ccccc2)n1 [Compound 1.8]	5 (5=80-100% damage)
COc1ccc(-n2nc(C)cc(C(=O)C3C(=O)CC(C)CC3=O)c2=O)cc1 (centres unmarked) [Compound 1.5]	5 (5=80-100% damage)
COc1ccc(-n2nc(C)cc(C(=O)C3C(=O)C4CCC(C4)C3=O)c2=O)cc1 (centres unmarked) [Compound 1.4]	5 (5=80-100% damage)

Test system: Alopecurus myosuroides (ALOMY)
Test: Post-emergence herbicidal glasshouse test
Type: in vivo
Conditions: 1000 g/h, evaluated after 13 days, five point scale
Description: as §1

Structure (SMILES)	percentage herbicidal damage, ALOMY, POST Application
Cc1cc(C(=O)C2C(=O)C3CCC(C3)C2=O)c(=O)n(-c2ccccc2)n1 (centres unmarked) [Compound 1.7]	5 (5=80-100% damage)
Cc1cc(C(=O)C2C(=O)CC(C)CC2=O)c(=O)n(-c2ccccc2)n1 (centres unmarked) [Compound 1.9]	5 (5=80-100% damage)
Cc1cc(C(=O)C2C(=O)C(C)(C)C(=O)C(C)(C)C2=O)c(=O)n(-c2ccccc2)n1 [Compound 1.8]	5 (5=80-100% damage)
COc1ccc(-n2nc(C)cc(C(=O)C3C(=O)CC(C)CC3=O)c2=O)cc1 (centres unmarked) [Compound 1.5]	5 (5=80-100% damage)
COc1ccc(-n2nc(C)cc(C(=O)C3C(=O)C4CCC(C4)C3=O)c2=O)cc1 (centres unmarked) [Compound 1.4]	5 (5=80-100% damage)

Test system: Amaranthus retoflexus (AMARE)
Test: Post-emergence herbicidal glasshouse test
Type: in vivo
Conditions: 1000 g/h, evaluated after 13 days, five point scale
Description: as §1

Structure (SMILES)	percentage herbicidal damage, AMARE, POST Application
Cc1cc(C(=O)C2C(=O)C3CCC(C3)C2=O)c(=O)n(-c2ccccc2)n1 (centres unmarked) [Compound 1.7]	5 (5=80-100% damage)
Cc1cc(C(=O)C2C(=O)CC(C)CC2=O)c(=O)n(-c2ccccc2)n1 (centres unmarked) [Compound 1.9]	5 (5=80-100% damage)
Cc1cc(C(=O)C2C(=O)C(C)(C)C(=O)C(C)(C)C2=O)c(=O)n(-c2ccccc2)n1 [Compound 1.8]	5 (5=80-100% damage)
COc1ccc(-n2nc(C)cc(C(=O)C3C(=O)CC(C)CC3=O)c2=O)cc1 (centres unmarked) [Compound 1.5]	5 (5=80-100% damage)
COc1ccc(-n2nc(C)cc(C(=O)C3C(=O)C4CCC(C4)C3=O)c2=O)cc1 (centres unmarked) [Compound 1.4]	5 (5=80-100% damage)

Test system: Setaria faberi (SETFA)
Test: Pre-emergence herbicidal glasshouse test
Type: in vivo
Conditions: 1000 g/h, evaluated after 13 days, five point scale
Description: as §1

Structure (SMILES)	percentage herbicidal damage, SETFA, PRE Application
Cc1cc(C(=O)C2C(=O)C3CCC(C3)C2=O)c(=O)n(-c2ccccc2)n1 (centres unmarked) [Compound 1.7]	5 (5=80-100% damage)
Cc1cc(C(=O)C2C(=O)CC(C)CC2=O)c(=O)n(-c2ccccc2)n1 (centres unmarked) [Compound 1.9]	5 (5=80-100% damage)
Cc1cc(C(=O)C2C(=O)C(C)(C)C(=O)C(C)(C)C2=O)c(=O)n(-c2ccccc2)n1 [Compound 1.8]	5 (5=80-100% damage)
COc1ccc(-n2nc(C)cc(C(=O)C3C(=O)CC(C)CC3=O)c2=O)cc1 (centres unmarked) [Compound 1.5]	5 (5=80-100% damage)
COc1ccc(-n2nc(C)cc(C(=O)C3C(=O)C4CCC(C4)C3=O)c2=O)cc1 (centres unmarked) [Compound 1.4]	5 (5=80-100% damage)

Test system: Abuthilon theophrasti (ABUTH)
Test: Pre-emergence herbicidal glasshouse test
Type: in vivo
Conditions: 1000 g/h, evaluated after 13 days, five point scale
Description: as §1

Structure (SMILES)	percentage herbicidal damage, ABUTH, PRE Application
Cc1cc(C(=O)C2C(=O)C3CCC(C3)C2=O)c(=O)n(-c2ccccc2)n1 (centres unmarked) [Compound 1.7]	5 (5=80-100% damage)
Cc1cc(C(=O)C2C(=O)CC(C)CC2=O)c(=O)n(-c2ccccc2)n1 (centres unmarked) [Compound 1.9]	5 (5=80-100% damage)
Cc1cc(C(=O)C2C(=O)C(C)(C)C(=O)C(C)(C)C2=O)c(=O)n(-c2ccccc2)n1 [Compound 1.8]	5 (5=80-100% damage)
COc1ccc(-n2nc(C)cc(C(=O)C3C(=O)CC(C)CC3=O)c2=O)cc1 (centres unmarked) [Compound 1.5]	5 (5=80-100% damage)
COc1ccc(-n2nc(C)cc(C(=O)C3C(=O)C4CCC(C4)C3=O)c2=O)cc1 (centres unmarked) [Compound 1.4]	5 (5=80-100% damage)

Test system: Echinochloa crus-galli (ECHCG)
Test: Pre-emergence herbicidal glasshouse test
Type: in vivo
Conditions: 1000 g/h, evaluated after 13 days, five point scale
Description: as §1

Structure (SMILES)	percentage herbicidal damage, ECHCG, PRE Application
Cc1cc(C(=O)C2C(=O)C3CCC(C3)C2=O)c(=O)n(-c2ccccc2)n1 (centres unmarked) [Compound 1.7]	5 (5=80-100% damage)
Cc1cc(C(=O)C2C(=O)CC(C)CC2=O)c(=O)n(-c2ccccc2)n1 (centres unmarked) [Compound 1.9]	5 (5=80-100% damage)
Cc1cc(C(=O)C2C(=O)C(C)(C)C(=O)C(C)(C)C2=O)c(=O)n(-c2ccccc2)n1 [Compound 1.8]	5 (5=80-100% damage)
COc1ccc(-n2nc(C)cc(C(=O)C3C(=O)CC(C)CC3=O)c2=O)cc1 (centres unmarked) [Compound 1.5]	5 (5=80-100% damage)
COc1ccc(-n2nc(C)cc(C(=O)C3C(=O)C4CCC(C4)C3=O)c2=O)cc1 (centres unmarked) [Compound 1.4]	5 (5=80-100% damage)

Test system: Alopecurus myosuroides (ALOMY)
Test: Pre-emergence herbicidal glasshouse test
Type: in vivo
Conditions: 1000 g/h, evaluated after 13 days, five point scale
Description: as §1

Structure (SMILES)	percentage herbicidal damage, ALOMY, PRE Application
Cc1cc(C(=O)C2C(=O)C3CCC(C3)C2=O)c(=O)n(-c2ccccc2)n1 (centres unmarked) [Compound 1.7]	5 (5=80-100% damage)
Cc1cc(C(=O)C2C(=O)CC(C)CC2=O)c(=O)n(-c2ccccc2)n1 (centres unmarked) [Compound 1.9]	5 (5=80-100% damage)
Cc1cc(C(=O)C2C(=O)C(C)(C)C(=O)C(C)(C)C2=O)c(=O)n(-c2ccccc2)n1 [Compound 1.8]	5 (5=80-100% damage)
COc1ccc(-n2nc(C)cc(C(=O)C3C(=O)CC(C)CC3=O)c2=O)cc1 (centres unmarked) [Compound 1.5]	5 (5=80-100% damage)
COc1ccc(-n2nc(C)cc(C(=O)C3C(=O)C4CCC(C4)C3=O)c2=O)cc1 (centres unmarked) [Compound 1.4]	5 (5=80-100% damage)

Test system: Amaranthus retoflexus (AMARE)
Test: Pre-emergence herbicidal glasshouse test
Type: in vivo
Conditions: 1000 g/h, evaluated after 13 days, five point scale
Description: as §1

Structure (SMILES)	percentage herbicidal damage, AMARE, PRE Application
Cc1cc(C(=O)C2C(=O)C3CCC(C3)C2=O)c(=O)n(-c2ccccc2)n1 (centres unmarked) [Compound 1.7]	5 (5=80-100% damage)
Cc1cc(C(=O)C2C(=O)CC(C)CC2=O)c(=O)n(-c2ccccc2)n1 (centres unmarked) [Compound 1.9]	5 (5=80-100% damage)
Cc1cc(C(=O)C2C(=O)C(C)(C)C(=O)C(C)(C)C2=O)c(=O)n(-c2ccccc2)n1 [Compound 1.8]	5 (5=80-100% damage)
COc1ccc(-n2nc(C)cc(C(=O)C3C(=O)CC(C)CC3=O)c2=O)cc1 (centres unmarked) [Compound 1.5]	5 (5=80-100% damage)
COc1ccc(-n2nc(C)cc(C(=O)C3C(=O)C4CCC(C4)C3=O)c2=O)cc1 (centres unmarked) [Compound 1.4]	5 (5=80-100% damage)
